One molecule from the NIST ThermoML archive (doi:10.1021/acs.jced.9b00348) can be followed below.

Numbers after ± are expanded uncertainties.

The series in a line: molar heat capacity at constant pressure. To be noted: 100 kPa, DSC.

`[F][Th]([F])([F])[F]` [thorium tetraluoride]: the “molar heat capacity at constant pressure” value was determined as 145 ± 21 J/K/mol (1278 K, Crystal) and 168 ± 21 J/K/mol (1478 K, Liquid).
